Measurements published in patent US9763445B2, “Safened herbicidal compositions comprising a pyridine carboxylic acid herbicide” (Dow AgroSciences, LLC, priority 2014, dated 2017).
Read-outs that look alike come from different tables or passages of the source.

Columns and labels:
[1] = test system: spring wheat (TRZAS); assay: Postemergence greenhouse trial, % visual injury on spring wheat; format: in vivo, Triticum aestivum
Method: (§1) Seeds of the desired test plant species were planted in Sun Gro MetroMix® 306 planting mixture, which typically has a pH of 6.0 to 6.8 and an organic matter content of about 30 percent, in plastic pots with a surface area of 103.2 square centimeters (cm^2). When required to ensure good germination and healthy plants, a fungicide treatment and/or other chemical or physical treatment was applied. The plants were grown for 7-36 days (d) in a greenhouse with an approximate 14-hour (h) photoperiod which was maintained at about 23° C. during the day and 22° C. during the night. Nutrients and water were added on a regular basis and supplemental lighting was provided with overhead metal halide 1000-Watt lamps as necessary. The plants were employed for testing when they reached the second or third true leaf stage.
(§2) Weighed amounts of technical material were dissolved in a volume of 97:3 volume per volume (v/v) acetone/dimethyl sulfoxide (DMSO) to stock solutions. […] The concentrated stock solutions were diluted with an aqueous mixture of 1.5% v/v of Agri-dex crop oil concentrate to provide the appropriate application rates. Compound requirements are based upon a 12 milliliter (mL) application volume at a rate of 187 liters per hectare (L/ha). Stocks solutions of the safeners were prepared following the same procedure. Spray solutions of the safeners and experimental compound mixtures were prepared by adding the stock solutions to the appropriate amount of dilution solution to form a 12 mL spray solution in two-way combinations. Formulated compounds were applied to the plant material with an overhead Mandel track sprayer equipped with 8002E nozzles calibrated to deliver 187 L/ha over an application area of 0.503 square meters (m^2) at a spray height of 18 inches (43 centimeters (cm)) above average plant canopy. Control plants were sprayed in the same manner with the solvent blank. All herbicide application (component a) rates are in g ae/ha and all safener (component b) rates are in g ai/ha.
(§3) The treated plants and control plants were placed in a greenhouse as described above and watered by sub-irrigation to prevent wash-off of the test compounds. After 20-22 d, the condition of the test plants as compared with that of the control plants was determined visually and scored on a scale of 0 to 100 percent where 0 corresponds to no injury and 100 corresponds to complete kill. The condition of the test plants was compared with that of the control plants as determined visually and scored on a scale of 0 to 100 percent, where 0 corresponds to no injury and 100 corresponds to complete kill. Colby's equation was used to determine the herbicidal effects expected from the mixtures.
(§4) The safener cloquintocet-mexyl was combined with compound 1, compound 2, compound 4, compound 5, and compound 6, and applied to corn/maize (ZEAMX) and spring wheat (TRZAS) and the phytotoxicity of the herbicidal compositions was measured. In addition, the efficacy of the herbicidal composition on velvetleaf (ABUTH, Abutilon theophrasti), pigweed (AMARE, Amaranthus retroflexus), winter rape (BRSNW, Brassica napus), lambsquarters (CHEAL, Chenopodium album), thistle (CIRAR, Cirsium arvense), nutsedge (CYPES, Cyperus esculentus), poinsettia (EPHHL, Euphorbia heterophylla), wild buckwheat (POLCO, Polygonum convolvulus), giant foxtail (SETFA, Setaria faberi), and chickweed (STEME, Stellaria media) was evaluated.
(§5) The safener cloquintocet-mexyl was combined with compound 1, compound 2, compound 3, compound 7, compound 8, compound 9, compound 10, compound 11, compound 12, compound 13, compound 14, compound 15, compound 16, compound 17, compound 18, compound 19, and compound 20, and applied to spring wheat (TRZAS), winter wheat (TRZAW), and spring barley (HORVS) and the phytotoxicity of the herbicidal compositions was measured. […]

[2] = test system: spring barley (HORVS); assay: Postemergence greenhouse trial, % visual injury on spring barley; format: in vivo, Hordeum vulgare
Method: as §1, §2, §3, §5

[3] = test system: pigweed (AMARE); assay: Postemergence greenhouse trial, % visual injury on pigweed; format: in vivo, Amaranthus retroflexus; settings: Amaranthus retroflexus, post-emergence, read-out: % visual injury, Ob
Method: as §1, §2, §3
as §4, with “evaluated. […]” for “evaluated.”
The safener cloquintocet-acid and a number of agriculturally acceptable esters and salts (-mexyl, -dimethylammonium salt and -triethylammonium salt) were combined in varying ratios with compound 1 and applied to spring wheat (TRZAS), winter wheat (TRZAW), and spring barley (HORVS), and the phytotoxicity of the herbicidal compositions was measured. […]

[4] = test system: lambsquarters (CHEAL); assay: Postemergence greenhouse trial, % visual injury on lambsquarters; format: in vivo, Chenopodium album; settings: Chenopodium album, post-emergence, read-out: % visual injury, Ob
Method: as §1, §2, §3, §4, §5

[5] = test system: kochia (KCHSC); assay: Postemergence greenhouse trial, % visual injury on kochia; format: in vivo, Kochia scoparia; settings: Bassia scoparia, post-emergence, read-out: % visual injury, Ob; for pest or weed control at 17.5 g/ha / pest or weed control at 35 g/ha / pest or weed control at 70 g/ha / pest or weed control at 4.375 g/ha / pest or weed control at 8.75 g/ha: KCHSC
Method: as §1, §2
as §3, with “mixtures. […]” for “mixtures.”

[6] = test system: winter rape (BRSNW); assay: Postemergence greenhouse trial, % visual injury on winter rape; format: in vivo, Brassica napus; settings: Brassica napus, post-emergence, BRSNW, read-out: % visual injury, Ob
Method: as §1, §2, §3
as §4, with “evaluated. […]” for “evaluated.”

[7] = test system: prickly lettuce (LACSE); assay: Postemergence greenhouse trial, % visual injury on prickly lettuce; format: in vivo, Lactuca serriola; settings: LACSE, CQC-m 0
Method: as §1, §2
as §3, with “mixtures. […]” for “mixtures.”

[8] = test system: wild mustard (SINAR); assay: Postemergence greenhouse trial, % visual injury on wild mustard; format: in vivo, Sinapis arvensis; settings: Brassica, post-emergence, SINAR, CQC-m 0, read-out: % visual injury, Ob
Method: as §1, §2
as §3, with “mixtures. […]” for “mixtures.”

[9] = test system: bird's-eye speedwell (VERPE); assay: Postemergence greenhouse trial, % visual injury on bird's-eye speedwell; format: in vivo, Veronica persica; settings: VERPE, CQC-m 0
Method: as §1, §2
as §3, with “mixtures. […]” for “mixtures.”

[10] = test system: common poppy (PAPRH); assay: Postemergence greenhouse trial, % visual injury on common poppy; format: in vivo, Papaver rhoeas; settings: Papaver rhoeas, post-emergence, PAPRH, applied alone, read-out: % visual injury, Ob
Method: as §1, §2
as §3, with “mixtures. […]” for “mixtures.”

[11] = TRZAS, 4.375 g/ha, applied alone
[12] = TRZAS, 8.75 g/ha, applied alone
[13] = TRZAS, 17.5 g/ha, applied alone
[14] = HORVS, 4.375 g/ha, applied alone
[15] = HORVS, 8.75 g/ha, applied alone
[16] = HORVS, 17.5 g/ha, applied alone

Q: With `Nc1c(F)c(-c2ccc3cc[nH]c3c2F)nc(C(=O)[O-])c1Cl.[K+]` [compound 7] as the compound, how does the “% visual injury, Ob” value ([1]; alone, 20 g/ha) read?
A: The value was 10%.

Q: What about the “% visual injury, Ob” value ([2]; alone, 20 g/ha) of the same compound?
A: The value was 5%.

Q: What about the pest or weed control at 20 g/ha [3] of the same compound?
A: The pest or weed control at 20 g/ha was 88%.

Q: And the pest or weed control at 20 g/ha [4]?
A: Its pest or weed control at 20 g/ha is 90%.

Q: What about the pest or weed control at 20 g/ha [5] of the same compound?
A: Its pest or weed control at 20 g/ha is 65%.

Q: Which results are given for `COC(=O)c1nc(-c2ccc3cc[nH]c3c2F)c(F)c(/N=C/N(C)C)c1Cl` [compound 11]?
A: % visual injury, Ob ([1]; TRZAS, compound 17.5 g/ha, CQC-m 0): 10%; % visual injury, Ob ([1]; TRZAS, compound 35 g/ha, CQC-m 0): 20%; % visual injury, Ob ([1]; TRZAS, compound 70 g/ha, CQC-m 0): 40%; % visual injury, Ob ([2]; HORVS, compound 17.5 g/ha, CQC-m 0): 10%; % visual injury, Ob ([2]; HORVS, compound 35 g/ha, CQC-m 0): 20%; % visual injury, Ob ([2]; HORVS, compound 70 g/ha, CQC-m 0): 40%; plant injury at 17.5 g/ha ([6]; compound 17.5 g/ha, CQC-m 0): 95%; plant injury at 35 g/ha ([6]; compound 35 g/ha, CQC-m 0): 100%; plant injury at 70 g/ha ([6]; compound 70 g/ha, CQC-m 0): 100%; pest or weed control at 17.5 g/ha ([5]; compound 17.5 g/ha, CQC-m 0): 70%; pest or weed control at 35 g/ha ([5]; compound 35 g/ha, CQC-m 0): 90%; pest or weed control at 70 g/ha ([5]; compound 70 g/ha, CQC-m 0): 90%; % visual injury, Ob ([7]; compound 17.5 g/ha): 0%; % visual injury, Ob ([7]; compound 35 g/ha): 10%; % visual injury, Ob ([7]; compound 70 g/ha): 40%; pest or weed control at 17.5 g/ha ([8]; compound 17.5 g/ha): 95%; pest or weed control at 35 g/ha ([8]; compound 35 g/ha): 100%; pest or weed control at 70 g/ha ([8]; compound 70 g/ha): 100%; % visual injury, Ob ([9]; compound 17.5 g/ha): 85%; % visual injury, Ob ([9]; compound 35 g/ha): 90%; % visual injury, Ob ([9]; compound 70 g/ha): 95%

Q: `COC(=O)c1nc(-c2ccc3sccc3c2)c(F)c(N)c1Cl` [compound 18] was tested. Which “% visual injury, Ob” value [1, 11] did it give?
A: The value was 10%.

Q: What about the “% visual injury, Ob” value [1, 12] of the same compound?
A: The value was 25%.

Q: And the “% visual injury, Ob” value [1, 13]?
A: The value was 40%.

Q: And the “% visual injury, Ob” value ([1]; TRZAS, 35 g/ha, applied alone)?
A: The value was 50%.

Q: And the “% visual injury, Ob” value ([1]; TRZAS, 70 g/ha, applied alone)?
A: Its value is 70%.

Q: What about the “% visual injury, Ob” value [2, 14] of the same compound?
A: The value was 15%.

Q: And the “% visual injury, Ob” value [2, 15]?
A: The value was 25%.

Q: What about the “% visual injury, Ob” value [2, 16] of the same compound?
A: The value was 40%.

Q: What about the “% visual injury, Ob” value ([2]; HORVS, 35 g/ha, applied alone) of the same compound?
A: Its value is 50%.

Q: And the “% visual injury, Ob” value ([2]; HORVS, 70 g/ha, applied alone)?
A: Its value is 70%.

Q: What about the pest or weed control at 4.375 g/ha ([5]; applied alone) of the same compound?
A: The pest or weed control at 4.375 g/ha was 30%.

Q: What about the pest or weed control at 8.75 g/ha ([5]; applied alone) of the same compound?
A: Its pest or weed control at 8.75 g/ha is 40%.

Q: And the pest or weed control at 17.5 g/ha ([5]; 17.5 g/ha, applied alone)?
A: Its pest or weed control at 17.5 g/ha is 75%.

Q: What about the pest or weed control at 35 g/ha ([5]; 35 g/ha, applied alone) of the same compound?
A: The pest or weed control at 35 g/ha was 93%.

Q: And the pest or weed control at 70 g/ha ([5]; 70 g/ha, applied alone)?
A: The pest or weed control at 70 g/ha was 90%.

Q: And the pest or weed control at 4.375 g/ha [10]?
A: Its pest or weed control at 4.375 g/ha is 90%.

Q: And the pest or weed control at 8.75 g/ha [10]?
A: Its pest or weed control at 8.75 g/ha is 90%.

Q: And the pest or weed control at 17.5 g/ha [10]?
A: Its pest or weed control at 17.5 g/ha is 93%.

Q: And the pest or weed control at 35 g/ha [10]?
A: Its pest or weed control at 35 g/ha is 93%.

Q: What about the pest or weed control at 70 g/ha [10] of the same compound?
A: The pest or weed control at 70 g/ha was 95%.

Q: What does the source list for `COc1c(N)nc(-c2ccc3sccc3c2)nc1C(=O)O` [compound 19]?
A: % visual injury, Ob [1, 11]: 0%; % visual injury, Ob [1, 12]: 10%; % visual injury, Ob [1, 13]: 30%; % visual injury, Ob ([1]; TRZAS, 35 g/ha, applied alone): 40%; % visual injury, Ob ([1]; TRZAS, 70 g/ha, applied alone): 50%; % visual injury, Ob [2, 14]: 0%; % visual injury, Ob [2, 15]: 10%; % visual injury, Ob [2, 16]: 10%; % visual injury, Ob ([2]; HORVS, 35 g/ha, applied alone): 15%; % visual injury, Ob ([2]; HORVS, 70 g/ha, applied alone): 35%; plant injury at 4.375 g/ha ([6]; 4.375 g/ha, applied alone): 0%; plant injury at 8.75 g/ha ([6]; 8.75 g/ha, applied alone): 10%; plant injury at 17.5 g/ha ([6]; 17.5 g/ha, applied alone): 20%; plant injury at 35 g/ha ([6]; 35 g/ha, applied alone): 25%; plant injury at 70 g/ha ([6]; 70 g/ha, applied alone): 30%; pest or weed control at 4.375 g/ha ([5]; applied alone): 0%; pest or weed control at 8.75 g/ha ([5]; applied alone): 0%; pest or weed control at 17.5 g/ha ([5]; 17.5 g/ha, applied alone): 0%; pest or weed control at 35 g/ha ([5]; 35 g/ha, applied alone): 10%; pest or weed control at 70 g/ha ([5]; 70 g/ha, applied alone): 60%; pest or weed control at 4.375 g/ha [10]: 80%; pest or weed control at 8.75 g/ha [10]: 80%; pest or weed control at 17.5 g/ha [10]: 85%; pest or weed control at 35 g/ha [10]: 90%; pest or weed control at 70 g/ha [10]: 95%
